# Measured values reported in ChEMBL document CHEMBL1145819 (J Med Chem, 2003).
# “And” between values parts separate entries of the source, which are not always exact repeats. Equal entries are not always repeated.
# What was measured:
# [1] = target: T1, 5-hydroxytryptamine receptor 7 (Homo sapiens, UniProt P34969); assay: Binding affinity towards human 5-hydroxytryptamine 7 receptor
# [2] = Antagonistic activity of compound in cAMP accumulation was evaluated; assay type: functional
# [3] = target: T2, 5-hydroxytryptamine receptor 5A (Homo sapiens, UniProt P47898); assay: Binding affinity towards human 5-hydroxytryptamine 5A receptor
# [4] = target: T3, 5-hydroxytryptamine receptor 6 (Homo sapiens, UniProt P50406)
# [5] = target: T3, 5-hydroxytryptamine receptor 6; assay: Binding affinity towards human 5-hydroxytryptamine 6 receptor was evaluated using [3H]-LSD as radioligand
# [6] = target: T2, 5-hydroxytryptamine receptor 5A; assay: Binding affinity towards human 5-hydroxytryptamine 5A receptor was evaluated using [3H]-5-CT as radioligand
# [7] = target: T3, 5-hydroxytryptamine receptor 6; assay: Antagonistic activity towards 5-hydroxytryptamine 6 receptor; assay type: functional; settings: read-out: pA2 (converted)
# [8] = Antagonistic activity of compound in 5-HT induced cAMP accumulation; assay type: functional
# [9] = target: 5-hydroxytryptamine receptor 7 (Rattus norvegicus, UniProt P32305); assay: Binding affinity towards rat 5-hydroxytryptamine 7 receptor
# [10] = target: Serotonin 2 (5-HT2) receptor (Homo sapiens, UniProt P41595+P28223+P28335); assay: Binding affinity towards 5-HT2 receptor; assay type: protein assay
# [11] = target: T3, 5-hydroxytryptamine receptor 6; assay: Binding affinity towards human 5-hydroxytryptamine 6 receptor
# [12] = target: T4, 5-hydroxytryptamine receptor 5A (Mus musculus, UniProt P30966); assay: Binding affinity towards mouse 5-hydroxytryptamine 5A receptor
# [13] = target: T4, 5-hydroxytryptamine receptor 5A; assay: Binding affinity towards mouse 5-hydroxytryptamine 5A receptor was evaluated using [3H]LSD as radioligand
# [14] = target: T3, 5-hydroxytryptamine receptor 6; assay: Binding affinity towards human 5-hydroxytryptamine 6 receptor was evaluated using [125I]-2-iodo LSD as radioligand
# [15] = target: T4, 5-hydroxytryptamine receptor 5A; assay: Binding affinity towards murine 5-hydroxytryptamine 5A receptor
# [16] = target: T1, 5-hydroxytryptamine receptor 7
# [17] = Antagonistoc activity of compound for 5-CT-mediated adenylate cyclase activity; assay type: functional
# [18] = target: T2, 5-hydroxytryptamine receptor 5A; assay: Binding affinity towards 5-hydroxytryptamine 5A receptor
# [19] = target: T5, Alpha-2A adrenergic receptor (Homo sapiens, UniProt P08913); assay: Binding affinity towards Alpha-2 adrenergic receptor
# T5 sequence (P08913 whole entry): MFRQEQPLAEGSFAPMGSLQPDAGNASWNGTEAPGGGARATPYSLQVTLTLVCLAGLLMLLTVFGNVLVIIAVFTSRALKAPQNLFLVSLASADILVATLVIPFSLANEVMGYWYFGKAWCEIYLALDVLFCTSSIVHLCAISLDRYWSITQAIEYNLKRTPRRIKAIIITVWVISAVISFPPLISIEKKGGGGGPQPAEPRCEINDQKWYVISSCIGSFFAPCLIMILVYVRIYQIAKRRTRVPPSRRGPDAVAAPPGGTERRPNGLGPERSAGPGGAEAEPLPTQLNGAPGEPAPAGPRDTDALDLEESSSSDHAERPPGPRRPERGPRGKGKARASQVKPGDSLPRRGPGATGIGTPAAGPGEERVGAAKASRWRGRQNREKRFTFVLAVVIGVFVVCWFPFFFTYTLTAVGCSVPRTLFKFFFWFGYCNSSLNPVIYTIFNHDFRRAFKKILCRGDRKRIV
# [20] = target: T6, Alpha-1A adrenergic receptor (Homo sapiens, UniProt P35348); assay: Binding affinity towards alpha-1-adrenergic receptor
# T6 sequence (P35348 whole entry): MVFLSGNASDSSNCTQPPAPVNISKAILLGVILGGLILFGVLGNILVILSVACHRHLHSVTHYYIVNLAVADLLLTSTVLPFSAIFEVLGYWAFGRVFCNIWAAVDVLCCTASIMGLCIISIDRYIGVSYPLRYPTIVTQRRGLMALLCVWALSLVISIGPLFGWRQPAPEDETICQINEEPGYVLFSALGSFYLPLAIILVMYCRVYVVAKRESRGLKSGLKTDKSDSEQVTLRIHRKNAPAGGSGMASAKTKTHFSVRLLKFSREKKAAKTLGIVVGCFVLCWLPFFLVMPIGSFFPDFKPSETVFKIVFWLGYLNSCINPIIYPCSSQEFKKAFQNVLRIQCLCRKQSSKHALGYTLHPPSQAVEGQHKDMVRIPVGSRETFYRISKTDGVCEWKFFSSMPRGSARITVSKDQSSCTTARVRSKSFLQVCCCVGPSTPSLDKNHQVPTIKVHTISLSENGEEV
# [21] = target: 5-hydroxytryptamine receptor 2A (Homo sapiens, UniProt P28223); assay: Binding affinity towards 5-hydroxytryptamine 2A receptor
# [22] = target: T3, 5-hydroxytryptamine receptor 6; assay: Antagonistic activity towards 5-hydroxytryptamine 6 receptor was evaluated in cAMP assay; assay type: functional
# [23] = target: T4, 5-hydroxytryptamine receptor 5A; assay: Binding affinity towards mouse 5-hydroxytryptamine 5A receptor was evaluated using [3H]- LSD as radioligand
# [24] = target: T1, 5-hydroxytryptamine receptor 7; remark: listed apart in the source
# [25] = target: T7, 5-hydroxytryptamine receptor 3A (Homo sapiens, UniProt P46098); assay: Binding affinity towards 5-hydroxytryptamine 3 receptor
# T7 sequence (P46098 whole entry): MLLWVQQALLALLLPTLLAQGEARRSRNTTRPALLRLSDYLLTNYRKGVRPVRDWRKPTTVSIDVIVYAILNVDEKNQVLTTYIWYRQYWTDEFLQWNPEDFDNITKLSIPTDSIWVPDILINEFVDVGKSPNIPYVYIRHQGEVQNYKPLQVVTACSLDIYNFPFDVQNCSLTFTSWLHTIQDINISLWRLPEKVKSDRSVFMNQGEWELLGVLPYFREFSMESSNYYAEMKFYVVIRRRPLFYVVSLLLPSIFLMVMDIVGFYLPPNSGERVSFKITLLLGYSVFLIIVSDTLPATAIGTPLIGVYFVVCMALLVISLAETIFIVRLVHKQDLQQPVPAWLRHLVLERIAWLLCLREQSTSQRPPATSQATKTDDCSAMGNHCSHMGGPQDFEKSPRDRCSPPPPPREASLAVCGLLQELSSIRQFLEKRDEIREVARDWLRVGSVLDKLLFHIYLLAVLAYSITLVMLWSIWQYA
# T3 sequence (P50406 whole entry): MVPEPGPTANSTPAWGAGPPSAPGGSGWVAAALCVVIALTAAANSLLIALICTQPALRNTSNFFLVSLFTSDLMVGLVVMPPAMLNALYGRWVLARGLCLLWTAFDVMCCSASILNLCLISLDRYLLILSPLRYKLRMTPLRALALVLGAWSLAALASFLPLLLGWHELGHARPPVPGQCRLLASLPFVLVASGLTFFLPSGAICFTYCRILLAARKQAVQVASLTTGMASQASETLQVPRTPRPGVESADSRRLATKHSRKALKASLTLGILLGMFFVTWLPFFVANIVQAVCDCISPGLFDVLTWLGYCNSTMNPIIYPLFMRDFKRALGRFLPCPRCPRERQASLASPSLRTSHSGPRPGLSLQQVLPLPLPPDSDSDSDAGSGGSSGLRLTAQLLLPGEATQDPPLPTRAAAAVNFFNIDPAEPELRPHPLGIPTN
# T2 sequence (P47898 whole entry): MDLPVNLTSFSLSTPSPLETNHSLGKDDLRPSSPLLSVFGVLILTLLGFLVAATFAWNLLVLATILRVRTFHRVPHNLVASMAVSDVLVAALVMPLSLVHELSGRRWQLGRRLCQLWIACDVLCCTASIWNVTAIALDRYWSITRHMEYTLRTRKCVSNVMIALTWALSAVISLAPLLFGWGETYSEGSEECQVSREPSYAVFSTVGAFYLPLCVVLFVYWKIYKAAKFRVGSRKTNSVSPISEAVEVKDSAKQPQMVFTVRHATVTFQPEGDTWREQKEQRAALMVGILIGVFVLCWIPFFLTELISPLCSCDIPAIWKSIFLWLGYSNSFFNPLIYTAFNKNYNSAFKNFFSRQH
# Sequence of 5-hydroxytryptamine receptor 7 (Rattus norvegicus, UniProt P32305) (P32305 whole entry): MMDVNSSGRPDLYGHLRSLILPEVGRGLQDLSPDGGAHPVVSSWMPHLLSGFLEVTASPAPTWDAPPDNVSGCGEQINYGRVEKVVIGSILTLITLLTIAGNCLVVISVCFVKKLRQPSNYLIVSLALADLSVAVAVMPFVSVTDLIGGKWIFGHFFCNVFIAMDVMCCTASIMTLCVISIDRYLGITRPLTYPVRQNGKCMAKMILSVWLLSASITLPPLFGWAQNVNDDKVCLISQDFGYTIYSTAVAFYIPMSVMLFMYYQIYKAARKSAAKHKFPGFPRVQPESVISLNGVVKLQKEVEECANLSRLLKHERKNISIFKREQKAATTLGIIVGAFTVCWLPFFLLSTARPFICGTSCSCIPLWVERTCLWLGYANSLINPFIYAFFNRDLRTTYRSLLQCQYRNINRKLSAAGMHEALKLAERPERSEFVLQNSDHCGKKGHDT
# T4 sequence (P30966 whole entry): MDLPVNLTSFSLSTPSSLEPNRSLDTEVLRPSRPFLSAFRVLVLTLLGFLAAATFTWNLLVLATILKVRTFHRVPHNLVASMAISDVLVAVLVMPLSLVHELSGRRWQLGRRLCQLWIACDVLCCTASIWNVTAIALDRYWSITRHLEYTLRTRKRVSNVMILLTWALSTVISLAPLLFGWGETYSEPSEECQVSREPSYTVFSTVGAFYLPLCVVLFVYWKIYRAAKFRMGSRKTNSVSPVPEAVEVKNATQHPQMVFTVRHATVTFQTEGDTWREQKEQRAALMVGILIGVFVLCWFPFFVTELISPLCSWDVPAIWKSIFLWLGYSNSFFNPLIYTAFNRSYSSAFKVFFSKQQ
# T1 sequence (P34969 whole entry): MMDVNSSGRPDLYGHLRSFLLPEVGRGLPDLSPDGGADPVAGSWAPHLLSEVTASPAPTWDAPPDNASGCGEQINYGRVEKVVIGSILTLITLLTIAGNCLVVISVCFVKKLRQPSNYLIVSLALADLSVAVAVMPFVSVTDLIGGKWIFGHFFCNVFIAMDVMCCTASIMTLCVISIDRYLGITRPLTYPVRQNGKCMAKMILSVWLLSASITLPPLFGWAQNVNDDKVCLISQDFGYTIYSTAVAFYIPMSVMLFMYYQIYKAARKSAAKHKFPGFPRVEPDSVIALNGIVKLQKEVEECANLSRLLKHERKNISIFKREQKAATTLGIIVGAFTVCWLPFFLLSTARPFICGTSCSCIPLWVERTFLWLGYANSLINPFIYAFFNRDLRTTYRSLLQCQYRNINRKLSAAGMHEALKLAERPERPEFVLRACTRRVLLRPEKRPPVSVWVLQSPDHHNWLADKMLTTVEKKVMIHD
# Sequence of 5-hydroxytryptamine receptor 2A (P28223 whole entry): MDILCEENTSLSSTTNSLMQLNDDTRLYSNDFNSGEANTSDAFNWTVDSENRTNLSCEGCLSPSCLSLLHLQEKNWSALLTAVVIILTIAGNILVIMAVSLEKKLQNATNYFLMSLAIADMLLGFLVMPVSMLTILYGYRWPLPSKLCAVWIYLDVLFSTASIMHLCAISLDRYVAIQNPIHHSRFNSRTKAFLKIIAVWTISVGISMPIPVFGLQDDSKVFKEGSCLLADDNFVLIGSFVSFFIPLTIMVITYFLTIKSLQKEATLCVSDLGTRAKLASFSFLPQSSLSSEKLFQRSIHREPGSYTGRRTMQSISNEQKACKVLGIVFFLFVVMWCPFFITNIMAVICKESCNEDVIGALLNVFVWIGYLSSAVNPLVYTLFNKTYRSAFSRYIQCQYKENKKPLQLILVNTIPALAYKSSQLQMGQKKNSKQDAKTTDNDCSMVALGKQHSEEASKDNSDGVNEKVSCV
structure (smiles),measurement,setting,value
CN1CCc2ccc3c4c2[C@H]1Cc1cccc(c1-4)[C@H]3N,Ki,[1],13.4 nM
COc1ccc(NS(=O)(=O)c2sc3ccc(Cl)cc3c2C)cc1N1CCN(C)CC1,pKb,[2],8.5
C[N+](C)(C)CCc1c[nH]c2ccc(O)cc12,Ki,[3],> 10000 nM
CO[C@H]1c2cccc3c2c(cn3S(=O)(=O)c2ccc(C)cc2)C[C@@H]1N,Ki,[4],130 nM
COc1ccc2c(c1)c1c(n2S(=O)(=O)c2ccccc2)CCCC1CN(C)C (stereo not drawn),Ki,[4],1.5 nM
NCCc1c[nH]c2ccc(C(N)=O)cc12,Ki,[5],720 nM
same,Ki,[3],20 nM
same,Ki,[6],20 nM
COc1ccc2c(c1)c(CCN(C)C)cn2S(=O)(=O)c1ccccc1,Ki,[4],2.1 nM
same,Kb,[7],1.32 nM
COc1ccc2c(c1)c(CCN(C)C)cn2-c1ccccc1,Ki,[4],33 nM
COc1cccc2c(CCN(C)C)c[nH]c12,Ki,[4],19600 nM
CO[C@]1(C)c2cccc3c2-c2c1ccc1c2[C@@H](C3)N(C)CC1,Ki,[1],1.1 nM
CNc1cc(NS(=O)(=O)c2ccc(N)cc2)nc(NC)n1,pA2,[8],6.75
CN1CCN(C2=Nc3cc(Cl)ccc3Nc3ccccc32)CC1 [CLOZAPINE],Ki,[6],1000 nM
CN1C[C@@H](NS(=O)(=O)N(C)C)C[C@@H]2c3cccc4[nH]cc(c34)C[C@H]21 [DISULERGINE],Ki,[1],18 nM
same,Ki,[9]; read-out: Ki,21 nM
O=S(=O)(c1cccc2ccccc12)n1ccc2ccc(N3CCN4CCCC4C3)cc21 (stereo not drawn),Ki,[4],0.7 nM
O=C1Nc2cccc3c2C1(CCCN1CCN(c2ccccc2)CC1)CCC3 (stereo not drawn),Ki,[10],16 nM
CN(C)CCc1cn(S(=O)(=O)c2ccccc2)c2ccccc12,Ki,[4],4.1 nM
COc1ccc(NS(=O)(=O)c2ccc(Br)cc2)cc1N1CCN(C)CC1,pKb,[2],7.8
OCCN1CCN(CCCN2c3ccccc3Sc3ccc(Cl)cc32)CC1 [PERPHENAZINE],Ki,[1],23 nM
CN1CCc2cccc3c2[C@H]1Cc1cccc(-c2ccccc2)c1-3,Ki,[1],9.78 nM
CNc1cc(NS(=O)(=O)c2ccc(N)cc2)cc(NC)n1,pA2,[8],7.1
same,Ki,[11],12 nM
O=c1[nH]c2ccccc2n1C1CCN(CCCC(c2ccc(F)cc2)c2ccc(F)cc2)CC1 [PIMOZIDE],Ki,[4],71 nM
COc1cc(N)c(Cl)cc1C(=O)NC1CN2CCC1CC2 (stereo not drawn) [ZACOPRIDE],Ki,[3],16000 nM
c1ccc2c3c([nH]c2c1)CNCC3 [TRYPTOLINE],Ki,[4],> 5000 nM
same,Ki,[12],2470 nM
CN(C)CC/C=C1/c2ccccc2Sc2ccc(Cl)cc21 [CHLORPROTHIXENE],Ki,[4],3 nM
same,Ki,[9]; read-out: Ki,5.6 nM
COc1ccc2c(c1)c(CCN(C)C)cn2S(=O)(=O)c1ccc(N)cc1,Ki,[4],2 nM
CN(C)CCc1cn(S(=O)(=O)c2ccc(N)cc2)c2ccccc12,Ki,[4],0.8 nM
CCCN(CCC)C1CCc2cccc(O)c2C1 (stereo not drawn) [8-OH-DPAT],Ki,[5],> 10000 nM
same,Ki,[9],150 nM
Cc1[nH]c2ccc(O)cc2c1CCN,Ki,[3],> 10000 nM
same,Ki,[13],> 10000 nM
same,Ki,[14],400 nM
Cn1c2c(c3ccccc31)CNCC2,Ki,[15],5300 nM
CCc1c(C)[nH]c2c1C(=O)C(CN1CCOCC1)CC2 (stereo not drawn) [MOLINDONE],Ki,[1],265 nM
O=C(CCCN1CCC2(CC1)C(=O)NCN2c1ccccc1)c1ccc(F)cc1 [SPIPERONE],Ki,[5],1590 nM
same,Ki,[4],1590 nM
same,Ki,[6],63000 nM
CN(C)Cc1cn(S(=O)(=O)c2ccc(N)cc2)c2ccccc12,Ki,[4],6.9 nM
CN1CCN(C2=Nc3ccccc3Nc3sccc32)CC1,Ki,[9]; read-out: Ki,104 nM
Cc1cccc(C#N)c1-c1cccc2c1-c1cccc3c1[C@@H](C2)N(C)CC3,Ki,[1],20.8 nM and 3.79 nM
CO[C@@]1(C)c2cccc3c2-c2c1ccc1c2[C@@H](C3)N(C)CC1,Ki,[1],1.1 nM
CNc1cc(NS(=O)(=O)c2ccc(N)cc2)nc(N)n1,Ki,[4],1000 nM
CNS(=O)(=O)c1ccc2[nH]cc(CCN(C)C)c2c1,Ki,[5],2600 nM
same,Ki,[16],950 nM
same,Ki,[3],5000 nM
same,Ki,[6],5000 nM
Cc1cccc(S(=O)(=O)N2CCC[C@@H]2CCN2CCC(C)CC2)c1 [SB-258741],Ki,[1],3 nM
CN1CCN(C2=Nc3ccccc3Oc3ccc(Cl)cc32)CC1 [LOXAPINE],Ki,[4],15 nM
CNc1cc(Br)cc(NS(=O)(=O)c2ccc(N)cc2)c1,Ki,[4],20 nM
c1ccc2nc(N3CCNCC3)ccc2c1 [QUIPAZINE],Ki,[15],> 10000 nM
same,Ki,[13],> 10000 nM
COc1cccc2[nH]cc(CCN(C)C)c12,Ki,[4],154 nM
Cl.O=S(=O)(c1ccc2cc[nH]c2c1)N1CCC[C@@H]1CCN1CCC(Oc2ccc(Cl)cc2)CC1,pA2,[17],8.1
same,Ki,[18],168 nM
CC1CCCN(CCC(C)N(C)S(=O)(=O)c2cccc3ccccc23)C1 (stereo not drawn),Ki,[1],32 nM and 125 nM and 65 nM
Clc1cccc(N2CCNCC2)c1 [CHLOROPHENYLPIPERAZINE],Ki,[15],8700 nM
same,Ki,[13],8700 nM
same,Ki,[14],2300 nM
CN1CCc2ccc3c4c2[C@H]1Cc1cccc(c1-4)[C@@H]3N,Ki,[1],18 nM
same,Ki,[19],92.8 nM
same,Ki,[20],373 nM
same,Ki,[21],469 nM
Cc1cn(S(=O)(=O)c2ccc(N)cc2)c2ccccc12,Ki,[4],12 nM
same,IC50,[22],300 nM
same,Kb,[22]; read-out: pA2 (converted),100 nM
CNC(=O)Cn1c2c(c3ccccc31)CCN(CCCCC13CCCc4cccc(c41)NC3=O)C2 (stereo not drawn),Ki,[10],> 1000 nM
same,Ki,[1],4 nM
c1ccc2c(N3CCNCC3)cccc2c1,Ki,[23],40 nM
Nc1ccc(S(=O)(=O)Nc2cc(N)nc(Br)c2)cc1,Ki,[4],55 nM
CC1CCN(CC[C@H]2CCCN2S(=O)(=O)c2cccc(O)c2)CC1,pKb,[24],8.3
CN1C[C@H](CNC(=O)OCc2ccccc2)C[C@@H]2c3cccc4[nH]cc(c34)C[C@H]21,Ki,[5],400 nM
same,Ki,[16],6.4 nM
same,Ki,[9]; read-out: Ki,60 nM
CNc1cc(NC)cc(NS(=O)(=O)c2ccc(N)cc2)c1,Ki,[4],200 nM
Oc1ccccc1N1CCNCC1,Ki,[15],215 nM
Cc1c(N=C2NCCN2)cccc1-c1ccccc1,Ki,[1],16 nM
same,Ki,[19],19 nM
same,Ki,[20],200 nM
CN(C)Cc1cn(S(=O)(=O)c2ccccc2)c2ccccc12,Ki,[4],3.1 nM
same,IC50,[22],800 nM
COc1ccc2[nH]c(C)c(CCN)c2c1,Ki,[4],80 nM
same,Ki,[25],> 10000 nM
O=C(c1ccc(F)cc1)C1CCN(CCn2c(=O)[nH]c3ccccc3c2=O)CC1 [KETANSERIN],Ki,[3],20000 nM
same,Ki,[6],20000 nM
Nc1ccc(S(=O)(=O)Nc2cc(Br)cc3[nH]ccc23)cc1,Ki,[4],50 nM
COc1ccc(NS(=O)(=O)c2sc3ccc(Cl)cc3c2C)cc1N1CCN2CCC[C@H]2C1,pKb,[2],7.7
COc1cc(CC(C)N)c(OC)cc1I (stereo not drawn),Ki,[3],> 1000 nM
C1CCN2CCNCC2C1 (stereo not drawn),Ki,[4],5 nM
COc1ccc2c(CCN(C)C)c[nH]c2c1,Ki,[4],8000 nM
O=C1Nc2cccc3c2C1(CCCCN1CC=C(c2ccccc2)CC1)CCC3 (stereo not drawn),Ki,[10],98 nM
Cc1ccc(S(=O)(=O)n2cc3c4c(cccc42)[C@H](O)[C@@H](N)C3)cc1,Ki,[4],7.2 nM
COc1ccc2c(c1)c(CCN(C)C)cn2Cc1ccccc1,Ki,[4],6.5 nM
